Assay [1] deals with Spinacia oleracea. The assay is described as follows: Inhibition of ATP sythesis in freshly lysed Spinacia oleracea (spinach) chloroplasts. The assay is classed as functional, organism-based.
Assay [2] addresses T1, Chloroplast coupling factor 1 (Spinacia oleracea) (UniProt P00825+P06453+P69447+P06451+P05435+P31853+P06450+P11402+P00833). The assay is described as follows: Inhibition of Mg2+ ATPase activity of coupling factor 1 in chloroplasts of Spinacia oleracea leaves at 25 uM. The assay is classed as protein-complex assay. The conditions noted are these: values are per cent of control.

For assay [3], the system named is Spinacia oleracea. The assay is described as follows: In vitro inhibition of photophosphorylation in intact chloroplasts of Spinacia oleracea (spinach) leaves assessed as phosphorylating nonyclic electron transport from water to methylviologen. The assay is classed as functional.
Assay [4] has as its system Spinacia oleracea. The assay is described as follows: Inhibition of thylakoid electron transport chain in intact chloroplasts of Spinacia oleracea (spinach) leaves assessed as inhibition of uncoupled PS2 electron transport from water to SiM at 400 uM relative to control. Particulars: values are per cent of control.
Assay [5] concerns Spinacia oleracea. In words: In vitro inhibition of photophosphorylation in intact chloroplasts of Spinacia oleracea (spinach) leaves assessed as basal electron transport from water to methylviologen. It counts as functional.
Assay [6] has as its system Spinacia oleracea. In words: Inhibition of thylakoid electron transport chain in intact chloroplasts of Spinacia oleracea (spinach) leaves assessed as inhibition of uncoupled PS2 electron transport from […] to DCPIP at 100 uM relative to control. The conditions noted are these: values are per cent of control.
Assay [7] relates to Spinacia oleracea. In words: Inhibition of ATP sythesis in freshly lysed Spinacia oleracea (spinach) chloroplasts at 150 uM. The assay is classed as functional, organism-based.
Assay [8] deals with Spinacia oleracea. In words: Inhibition of thylakoid electron transport chain in intact chloroplasts of Spinacia oleracea (spinach) leaves assessed as inhibition of uncoupled PS2 electron transport from water to SiM at 100 uM relative to control. Particulars: values are per cent of control.
Assay [9] concerns Spinacia oleracea. The assay is described as follows: Induction of Chlorophyll a fluorescence induction curve in freshly lysed chloroplasts of Spinacia oleracea (spinach) at 10 uM. The assay is classed as functional, organism-based.
For assay [10], the target named is T1, Chloroplast coupling factor 1 (Spinacia oleracea). The assay is described as follows: Inhibition of Ca2+ ATPase activity of coupling factor 1 in chloroplasts of Spinacia oleracea (spinach) leaves at 150 uM. It counts as protein-complex assay.
Assay [11] has as its system Spinacia oleracea. The assay is described as follows: Induction of Chlorophyll a fluorescence induction curve in freshly lysed chloroplasts of Spinacia oleracea (spinach) at 300 uM. It counts as functional, organism-based.
Assay [12] addresses T1, Chloroplast coupling factor 1 (Spinacia oleracea). The assay is described as follows: Inhibition of Ca2+ ATPase activity of coupling factor 1 in chloroplasts of Spinacia oleracea (spinach) leaves at 50 uM. The assay is classed as protein-complex assay.
Assay [13] shares this target. In words: Inhibition of Ca2+ ATPase activity of coupling factor 1 in chloroplasts of Spinacia oleracea (spinach) leaves at 25 uM. It counts as protein-complex assay.
For assay [14], the system named is Spinacia oleracea. The assay is described as follows: Inhibition of thylakoid electron transport chain in intact chloroplasts of Spinacia oleracea (spinach) leaves assessed as inhibition of uncoupled PS2 electron transport from water to SiM at 300 uM relative to control. Particulars: values are per cent of control.
Assay [15] has as its system Spinacia oleracea. The assay is described as follows: Inhibition of thylakoid electron transport chain in intact chloroplasts of Spinacia oleracea (spinach) leaves assessed as inhibition of uncoupled PS2 electron transport from […] to DCPIP at 200 uM relative to control. Particulars: values are per cent of control.
Assay [16] has as its target T1, Chloroplast coupling factor 1 (Spinacia oleracea). In words: Inhibition of H+ ATPase activity of coupling factor 1 in chloroplasts of Spinacia oleracea (spinach) leaves at 200 uM. The assay is classed as protein-complex assay.
The target is the same in assay [17]. The assay is described as follows: Inhibition of H+ ATPase activity of coupling factor 1 in chloroplasts of Spinacia oleracea (spinach) leaves at 50 uM. The assay is classed as protein-complex assay.
The subject of assay [18] is Spinacia oleracea. In words: Inhibition of thylakoid electron transport chain in intact chloroplasts of Spinacia oleracea (spinach) leaves assessed as inhibition of uncoupled PS2 electron transport from water to SiM at 200 uM relative to control. Particulars: values are per cent of control.
In assay [19] the target is T1, Chloroplast coupling factor 1 (Spinacia oleracea). The assay is described as follows: Inhibition of Mg2+ ATPase activity of coupling factor 1 in chloroplasts of Spinacia oleracea (spinach) leaves at 150 uM. The assay is classed as protein-complex assay. Particulars: values are per cent of control.
The test system of assay [20] is Spinacia oleracea. The assay is described as follows: Inhibition of thylakoid electron transport chain in intact chloroplasts of Spinacia oleracea (spinach) leaves assessed as inhibition of uncoupled PS2 electron transport from […] to DCPIP at 300 uM relative to control. Particulars: values are per cent of control.
The target in assay [21] is T1, Chloroplast coupling factor 1 (Spinacia oleracea). In words: Inhibition of H+ ATPase activity of coupling factor 1 in chloroplasts of Spinacia oleracea (spinach) leaves at 150 uM. The assay is classed as protein-complex assay.
Assay [22] has as its system Spinacia oleracea. The assay is described as follows: In vitro inhibition of photophosphorylation in intact chloroplasts of Spinacia oleracea (spinach) leaves assessed as inhibition of uncoupled electron transport from water to methylviologen at 300 uM. The assay is classed as functional.
The target in assay [23] is T1, Chloroplast coupling factor 1 (Spinacia oleracea). In words: Inhibition of Mg2+ ATPase activity of coupling factor 1 in chloroplasts of Spinacia oleracea (spinach) leaves at 50 uM. The assay is classed as protein-complex assay. Particulars: values are per cent of control.

Calls of active or inactive are those of the source. The rule behind the calls is not given here.

Consider `CC(C)[C@@H](C)/C=C/[C@@H](C)[C@H]1CC[C@H]2C3=CC=C4C[C@@H](O)CC[C@]4(C)[C@H]3CC[C@]12C`, for which the I50 entry in the assay with Spinacia oleracea [1] was “inactive”.

`O=c1[nH]cnc2c1ncn2[C@@H]1O[C@H](CO)[C@@H](O)[C@H]1O`: the I50 result in the assay with Spinacia oleracea [1] is “inactive”.

For the compound `OCCc1ccc(O)cc1`, the I50 result with Spinacia oleracea [1] was “inactive”.

Turning to `COc1cc(O)cc2c1C(=O)O[C@@H](C)CCCCCCC2` [LASIODIPLODIN], the residual activity in [2] was found to be 62.3%; with Spinacia oleracea [4] it was 0%; in the assay on Spinacia oleracea [6] it was 87%; in the assay on Spinacia oleracea [8], 80%; with Spinacia oleracea [14] it was 40%; in the assay on Spinacia oleracea [15] it was 75%. Further, the residual activity in the assay on Spinacia oleracea [18] was 70%; in assay [19] it was 49.4%; in the assay with Spinacia oleracea [20], 27%; in assay [23] it was 54.5%. The inhibition result in the assay on Spinacia oleracea [3] and in the assay on Spinacia oleracea [5] was “Active” each time. Also, the inhibition with Spinacia oleracea [7] turned out to be 100%; in [10], 84.1%; in [12], 87.5%; in assay [13], 95.6%; in [16], 97.7%; in [17], 95%. In addition, the inhibition in assay [21] stood at 98.5%; in the assay with Spinacia oleracea [22], 100%. For the same compound, the result in the assay on Spinacia oleracea [9] and with Spinacia oleracea [11] was Active. In addition, the IC50 in the assay with Spinacia oleracea [1] (read-out: I50) amounted to 35.6 µM.

The residual activity is the signal under treatment as a percentage of the control signal. Usually inhibition stands for how much of the control response was suppressed.

The values are drawn from ChEMBL document CHEMBL3045232, “Inhibition of photophosphorylation and electron transport chain in thylakoids by lasiodiplodin, a natural product from Botryosphaeria rhodina” (J Agric Food Chem, 2007).
